Experimental data reported in PMC11352099 (RSC Medicinal Chemistry, 2024).
Where two headings read alike, the source gives them in different places.

How the values were obtained:
[1] = for Plasma stability % of the parent compound after 120 min, Mouse: 10 μM
SARS-CoV-2 nsp14 MTase = SARS-CoV-2 nsp14 MTase (Severe acute respiratory syndrome coronavirus 2, UniProt P0DTD1); assay: biochemical; assay type: biochemical; conditions: for Hill slope: Table S1, dose-response curve, variable slope model
[2] = microsomes, 0.75 h, 10 µM, pH 7.4
human RNMT = human RNMT (Homo sapiens, UniProt O43148); assay: Off-target inhibition of human RNMT; assay type: biochemical; conditions: for inhibitory activity against RNMT: 25 μM concentration of inhibitor
Source text: Human cells rely on several MTases; therefore, it is necessary to assess the possible off-target effect. […]

Caco-2 monolayers = assay: in vitro; conditions: Caco-2
Description: (§1) 3.5. Caco-2 permeability assay
(§2) Transepithelial bi-directional transport of compounds (10 µM, pH 7.4/7.4) was tested on 21-day differentiated Caco-2 monolayers. Briefly, the cells were seeded at a density of 67 ,500 cells per 96-well plate insert (Millicell®, Merck KGaA, Darmstadt, Germany). They were left to differentiate for 21 days with medium exchange every 2–3 days. Prior to the experiment, the medium from both apical and basolateral well was exchanged for HBSS buffer (containing 10 mM HEPES and 25 mM glucose) and left to equilibrate for 30 min. Compound permeability was assayed by replacing pure HBSS with HBSS containing 10 μM compounds and 220 μM Lucifer yellow (LY) solution in an apical insert (A to B transport) or in a basolateral well (B to A transport). The tre ated cells were then returned to the incubator for 2 h at 37 °C. After that, samples were collected from both apical inserts and basolateral wells and analyzed using LC -MS/MS (SCIEX Triple Quad™ 7500 QTRAP® Ready). LC separation was done on Synergi 4µm Fusion 50 × 2 mm column (Phenomenex) using a water/acetonitrile gradient with 0.1% formic acid starting from 2 to 98% for 4.5 min.
(§3) The apparent permeability coefficient (Papp) was calculated from t he following equation: Papp = (dQ / dt) / C0 * A, where dQ/dt is the rate of absorption of the drug across the cells, C0 is the donor compartment concentration at time zero, and A is the area of the monolayer. Efflux ratio was expressed as (Papp B -A) / (Papp A-B). Recovery (%) was determined as (total compound mass i n donor and receiver compartments at the end of the incubation / initial compound mass in the donor compartment) x 100. The data represent means ± SD of two independent experiments performed in triplicate. […]
(§4) were used as control compounds.

in vitro [3] = conditions: human; for efflux ratio at 2 h, 10 µM: Caco-2; for Papp A→B at 2 h, 10 µM / Papp B→A at 2 h, 10 µM: Caco-2, pH 7.4
Description: as §1, §2, §3, §4

[4] = for Plasma stability % of the parent compound after 120 min, Human: 10 μM
[5] = system: SARS-CoV-2 strain hCoV-19/Czech Republic/NRL_6632_2/2020; assay: microbe, parasite or virus in culture; assay type: cell-based; conditions: Calu-3 cell line
[6] = microsomes, 0.75 h, 10 µM, pH 7.4; remark: listed apart in the source
in vitro [7] = conditions: human
in vitro [8] = conditions: mouse, plasma
[9] = Table 1 and text, N.I., no inhibition, read-out: IC50
[10] = Table S1, read-out: IC50 (inhibitory activity)
[11] = Severe acute respiratory syndrome coronavirus 2, read-out: EC50 (antiviral effect)
[12] = Severe acute respiratory syndrome coronavirus 2, 72 h, MOI ∼0.01, 3 days, read-out: EC50 (antiviral effect)

human RNMT, sequence (O43148 whole entry): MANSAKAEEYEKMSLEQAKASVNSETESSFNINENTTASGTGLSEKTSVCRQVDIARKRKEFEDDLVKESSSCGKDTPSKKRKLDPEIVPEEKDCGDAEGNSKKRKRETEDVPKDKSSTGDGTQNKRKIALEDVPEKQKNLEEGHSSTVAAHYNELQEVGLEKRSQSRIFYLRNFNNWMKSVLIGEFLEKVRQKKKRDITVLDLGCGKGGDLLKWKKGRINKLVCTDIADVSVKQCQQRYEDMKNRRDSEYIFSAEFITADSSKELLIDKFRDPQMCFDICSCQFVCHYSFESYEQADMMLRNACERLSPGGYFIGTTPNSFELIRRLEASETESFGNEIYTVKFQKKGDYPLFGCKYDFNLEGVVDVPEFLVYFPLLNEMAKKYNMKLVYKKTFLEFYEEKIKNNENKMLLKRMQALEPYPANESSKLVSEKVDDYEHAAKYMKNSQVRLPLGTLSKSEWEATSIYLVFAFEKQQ

SMILES	Plasma stability % of the parent compound after 120 min, Mouse [1] [%]	IC50 (SARS-CoV-2 nsp14 MTase; [9]) [nM]	Hill slope (SARS-CoV-2 nsp14 MTase)	IC50 (SARS-CoV-2 nsp14 MTase; [10]) [nM]	Microsomal stability % of the parent compound after 45 min, Human [2] [%]	inhibitory activity against RNMT (human RNMT)	Papp A-B (Caco-2 monolayers) [cm/s x 10-6]	Papp B-A (Caco-2 monolayers) [cm/s x 10-6]	efflux ratio at 2 h, 10 µM (in vitro [3])	recovery at 2 h, 10 µM (in vitro [3]; Caco-2, Recovery (%) A-B) [%]	recovery at 2 h, 10 µM (in vitro [3]; Caco-2, Recovery (%) B-A) [%]	Papp A→B at 2 h, 10 µM (in vitro [3]) [×10⁻⁶ cm/s]	Papp B→A at 2 h, 10 µM (in vitro [3]) [×10⁻⁶ cm/s]	Plasma stability % of the parent compound after 120 min, Human [4] [%]	EC50 [5, 11] [nM]	Microsomal stability % of the parent compound after 45 min, Mouse [6] [%]	other results
Cc1cc(=O)oc2cc(NC(=O)[C@H]3O[C@@H](n4cnc5c(N)ncnc54)[C@H](O)[C@@H]3O)ccc12 [12l]	93 ± 2.7	360 ± 40	-1.39	364	104 ± 4.1	None of the tested compounds exhibited any inhibitory activity	3.1 ± 1.3	10.7 ± 2.5	3.4	85	83	3.1 ± 1.3	10.7 ± 2.5	103 ± 3.3	> 50000	95 ± 5.0	
Nc1ncnc2c1ncn2[C@@H]1O[C@H](C(=O)Nc2ccc3c(C(F)(F)F)cc(=O)oc3c2)[C@@H](O)[C@H]1O [12m]	67 ± 3.5	1470 ± 140	-1.01	1470	90 ± 9.1		8.0 ± 2.9	32.9 ± 5.3	4.1	96	130	8 ± 2.9	32.9 ± 5.3	20 ± 1.4		93 ± 9.4	stability in mouse plasma (in words) ([1]; plasma): unstable; stability in human plasma (in words) ([4]; plasma): unstable
Cc1cc(=O)[nH]c2cc(NC(=O)[C@H]3O[C@@H](n4cnc5c(N)ncnc54)[C@H](O)[C@@H]3O)ccc12 [12n]	78 ± 0.3	350 ± 40	-1.19		95 ± 0.0	None of the tested compounds exhibited any inhibitory activity	4.4 ± 1.8	2.2 ± 0.4	0.5	79	87	4.4 ± 1.8	2.2 ± 0.4	97 ± 2.0	> 50000	90 ± 2.9	
Cc1cc(=O)oc2cc(NC(=O)[C@H]3O[C@@H](n4cc(C#Cc5cncnc5)c5c(N)ncnc54)[C@H](O)[C@@H]3O)ccc12 [18l]	89 ± 1.1	31 ± 5	-1.09		90 ± 4.2	None of the tested compounds exhibited any inhibitory activity		8.3 ± 0.5		87			8.3 ± 0.5	74 ± 0.2		84 ± 2.5	IC50 (human RNMT): > 25000 nM; CC50 at 3 days (in vitro [7]): > 50000 nM; EC50 [5, 12]: 12000 ± 6000 nM
Cc1cc(=O)[nH]c2cc(NC(=O)[C@H]3O[C@@H](n4cc(C#Cc5cncnc5)c5c(N)ncnc54)[C@H](O)[C@@H]3O)ccc12 [18n]	41 ± 0.7	43 ± 5	-1.29		90 ± 2.0	None of the tested compounds exhibited any inhibitory activity	11.3 ± 3.7	7.3 ± 1.3	0.6	148	110	11.3 ± 3.7	7.3 ± 1.3	93 ± 0.4		85 ± 0.6	IC50 (SARS-CoV-2 nsp14 MTase; values printed in Fig. 3 (correlation with GlideScore XP), read-out: IC50): 40 nM; half-life at 2 h, 10 µM (in vitro [8]): 1.57 h; CC50 at 3 days (in vitro [7]): > 50000 nM; EC50 [5, 12]: 10000 ± 3000 nM; EC50 ([5]; Severe acute respiratory syndrome coronavirus 2, Table S3, read-out: EC50): 9800 nM
Cc1cc(=O)[nH]c2cc(N(C)C(=O)[C@H]3O[C@@H](n4cc(C#Cc5cncnc5)c5c(N)ncnc54)[C@H](O)[C@@H]3O)ccc12 [18q]	86 ± 0.9	890 ± 120	-1.02	891	107 ± 6.6	None of the tested compounds exhibited any inhibitory activity	2.0 ± 0.3	2.1 ± 0.4	1	89	101	2 ± 0.3	2.1 ± 0.4	80 ± 1.1	> 50000	117 ± 10.9	
C[C@H]1O[C@@H](O[C@H]2[C@@H](O)C[C@H](O[C@H]3[C@@H](O)C[C@H](O[C@H]4CC[C@@]5(C)[C@H](CC[C@@H]6[C@@H]5C[C@@H](O)[C@]5(C)[C@@H](C7=CC(=O)OC7)CC[C@]65O)C4)O[C@@H]3C)O[C@@H]2C)C[C@H](O)[C@@H]1O [Digoxin, reference compound]																	recovery at 2 h, 10 µM (in vitro [3]; Caco-2, Recovery (%) A-B, Table S2, A to B transport): 131%; recovery at 2 h, 10 µM (in vitro [3]; Caco-2, Recovery (%) B-A, Table S2, B to A transport): 77%
